Legend:
CDK2 = CDK2 (Homo sapiens (Human), UniProt P24941); test: CDK2 NanoBiT assay (HiBiT-tagged CDK2 degradation); format: cell-based; settings: HEK293, HEK293 clonal line, C-terminal HiBiT tag on CDK2, LgBiT; 24 hours
Outline: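 HEK293 line with CRISPR knock-in C-terminal HiBiT-tagged CDK2 and stable LgBiT, preincubated 16 h with live-cell substrate, then compound-treated 24 h at 37° C, 5% CO2 (30 μM stock). Luminescence normalized to plate negative and positive controls; EC50 from 3-parameter logistic fit, Hill slope 1.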

CRBN-DDB1 = CRBN-DDB1 (Homo sapiens (Human), UniProt Q96SW2); test: CRBN HTRF assay (Cy5-Thalidomide probe displacement); format: binding; settings: CRBN-DDB1 2.5 nM, Cy5-Thalidomide 100 nM, 30 min; Ki from geometric mean IC50 by Cheng-Prusoff
Outline: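 HTRF displacement of Cy5-thalidomide probe (100 nM) from His-CRBN-DDB1 (2.5 nM) with anti-His terbium cryptate, in HEPES/NaCl/TCEP/EDTA/Tween20 buffer. 10-point 1:3 compound series, 30 min at ambient temperature; signal normalised to DMSO and lenalidomide controls, IC50 fitted and Ki derived by Cheng-Prusoff.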

Sequence of CRBN-DDB1 (Q96SW2 whole entry): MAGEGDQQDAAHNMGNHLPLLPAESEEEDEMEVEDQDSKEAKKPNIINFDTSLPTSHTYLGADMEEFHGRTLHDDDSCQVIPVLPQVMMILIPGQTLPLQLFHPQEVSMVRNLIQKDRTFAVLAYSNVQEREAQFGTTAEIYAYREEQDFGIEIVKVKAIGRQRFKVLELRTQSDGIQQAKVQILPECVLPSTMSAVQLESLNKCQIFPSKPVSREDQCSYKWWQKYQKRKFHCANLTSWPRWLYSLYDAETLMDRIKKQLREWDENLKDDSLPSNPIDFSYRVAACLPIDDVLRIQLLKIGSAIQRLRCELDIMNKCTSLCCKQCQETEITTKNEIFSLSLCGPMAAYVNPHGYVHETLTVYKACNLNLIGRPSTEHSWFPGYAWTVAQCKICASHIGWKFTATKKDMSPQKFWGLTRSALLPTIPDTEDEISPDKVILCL
Sequence of CRBN-DDB1 (Q16531 whole entry partner): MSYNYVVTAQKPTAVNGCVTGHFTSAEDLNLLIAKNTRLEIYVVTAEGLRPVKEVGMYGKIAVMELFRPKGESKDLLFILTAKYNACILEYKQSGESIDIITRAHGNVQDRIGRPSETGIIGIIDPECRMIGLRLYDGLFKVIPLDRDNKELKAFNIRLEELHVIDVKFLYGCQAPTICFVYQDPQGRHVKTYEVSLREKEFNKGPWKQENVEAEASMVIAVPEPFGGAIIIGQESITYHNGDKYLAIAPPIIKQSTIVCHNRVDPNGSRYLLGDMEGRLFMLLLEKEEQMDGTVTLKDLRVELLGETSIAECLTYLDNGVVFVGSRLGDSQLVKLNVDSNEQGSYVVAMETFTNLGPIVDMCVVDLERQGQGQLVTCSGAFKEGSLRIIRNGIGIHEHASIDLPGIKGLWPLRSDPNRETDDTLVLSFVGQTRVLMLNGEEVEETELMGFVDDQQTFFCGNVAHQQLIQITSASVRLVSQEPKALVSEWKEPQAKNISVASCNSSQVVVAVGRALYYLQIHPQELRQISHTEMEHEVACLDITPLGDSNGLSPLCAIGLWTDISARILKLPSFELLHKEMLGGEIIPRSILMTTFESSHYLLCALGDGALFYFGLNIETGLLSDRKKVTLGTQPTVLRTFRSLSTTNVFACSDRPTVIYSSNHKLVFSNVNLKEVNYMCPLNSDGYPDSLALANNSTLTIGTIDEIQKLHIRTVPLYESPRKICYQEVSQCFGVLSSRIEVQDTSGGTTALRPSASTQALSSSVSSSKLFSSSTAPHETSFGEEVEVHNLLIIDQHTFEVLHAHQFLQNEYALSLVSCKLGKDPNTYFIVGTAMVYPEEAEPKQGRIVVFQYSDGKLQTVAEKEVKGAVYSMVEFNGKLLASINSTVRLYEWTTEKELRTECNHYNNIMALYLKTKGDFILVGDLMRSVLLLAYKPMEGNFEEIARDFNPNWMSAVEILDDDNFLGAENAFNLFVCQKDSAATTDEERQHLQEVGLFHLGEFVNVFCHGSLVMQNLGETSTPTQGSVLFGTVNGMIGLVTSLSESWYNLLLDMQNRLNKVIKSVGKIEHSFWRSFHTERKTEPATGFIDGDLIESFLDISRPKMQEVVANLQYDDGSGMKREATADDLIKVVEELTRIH

Dmax (CDK2) [%] | Ki (CRBN-DDB1) [nM] | Structure (SMILES)
> 80 | ≤ 100 | Cc1ccccc1-c1nnc(NC2CN(c3cc(F)c(C4CCC(=O)NC4=O)c(F)c3)C2)o1 (stereo not shown) [Compound 96, 3-(2,6-difluoro-4-(3-((5-(o-tolyl)-1,3,4-oxadiazol-2-yl)amino)azetidin-1-yl)phenyl)piperidine-2,6-dione]
> 80 | ≤ 100 | COc1ccc(-c2nnc(NC3CN(c4cc(F)c(C5CCC(=O)NC5=O)c(F)c4)C3)o2)cc1 (stereo not shown) [Compound 98, 3-(2,6-difluoro-4-(3-((5-(4-methoxyphenyl)-1,3,4-oxadiazol-2-yl)amino)azetidin-1-yl)phenyl)piperidine-2,6-dione]
50 to 80 | ≤ 100 | O=C1CCC(c2c(F)cc(N3CC(Nc4nnc(Cc5ccccc5)o4)C3)cc2F)C(=O)N1 (stereo not shown) [Compound 100, 3-(4-(3-((5-benzyl-1,3,4-oxadiazol-2-yl)amino)azetidin-1-yl)-2,6-difluorophenyl)piperidine-2,6-dione]
> 80 | ≤ 100 | O=C1CCC(c2c(F)cc(N3CC(Nc4nnc(-c5ccccc5)o4)C3)cc2F)C(=O)N1 (stereo not shown) [Compound 104, 3-(2,6-difluoro-4-(3-((5-phenyl-1,3,4-oxadiazol-2-yl)amino)azetidin-1-yl)phenyl)piperidine-2,6-dione]
50 to 80 | 100 to 1000 | O=C1CCC(c2c(F)cc(N3CC(Nc4ncn(C5CC6(CCC6)C5)n4)C3)cc2F)C(=O)N1 (stereo not shown) [Compound 105, 3-(2,6-difluoro-4-(3-((1-(spiro[3.3]heptan-2-yl)-1H-1,2,4-triazol-3-yl)amino)azetidin-1-yl)phenyl)piperidine-2,6-dione]
> 80 | ≤ 100 | O=C1CCC(c2c(F)cc(N3CC(Nc4nnc(C5CC6(CCC6)C5)o4)C3)cc2F)C(=O)N1 (stereo not shown) [Compound 107, 3-(2,6-difluoro-4-(3-((5-(spiro[3.3]heptan-2-yl)-1,3,4-oxadiazol-2-yl)amino)azetidin-1-yl)phenyl)piperidine-2,6-dione]
10 to 50 | ≤ 100 | Cc1cc(Cl)ccc1N(C)C(=O)N1CC(OC(=O)NC2CN(c3cc(F)c(C4CCC(=O)NC4=O)c(F)c3)C2)C1 (stereo not shown) [Compound 113, 1-((4-chloro-2-methylphenyl)(methyl)carbamoyl)azetidin-3-yl (1-(4-(2,6-dioxopiperidin-3-yl)-3,5-difluorophenyl)azetidin-3-yl)carbamate]
10 to 50 | ≤ 100 | Cc1cccc(N(C)C(=O)C23CC(OC(=O)NC4CN(c5cc(F)c(C6CCC(=O)NC6=O)c(F)c5)C4)(C2)C3)c1C (stereo not shown) [Compound 114, 3-((2,3-dimethylphenyl)(methyl)carbamoyl)bicyclo[1.1.1]pentan-1-yl (1-(4-(2,6-dioxopiperidin-3-yl)-3,5-difluorophenyl)azetidin-3-yl)carbamate]

Second part, the compound before the results:

Structure (SMILES) | Dmax (CDK2) [%] | Ki (CRBN-DDB1) [nM]
COc1c(N2CC(Nc3nnc(C4CC5(CCC5)C4)o3)C2)ccc(C2CCC(=O)NC2=O)c1Cl (stereo not shown) [Compound 91, 3-(2-chloro-3-methoxy-4-(3-((5-(spiro[3.3]heptan-2-yl)-1,3,4-oxadiazol-2-yl)amino)azetidin-1-yl)phenyl)piperidine-2,6-dione] | > 80 | 100 to 1000
O=C1CCC(c2c(F)cc(N3C[C@H](Nc4nnc(C5CC6(CCC6)C5)o4)CC3=O)cc2F)C(=O)N1 (stereo partly drawn) [Compound 92, 3-(2,6-difluoro-4-((R)-2-oxo-4-((5-(spiro[3.3]heptan-2-yl)-1,3,4-oxadiazol-2-yl)amino)pyrrolidin-1-yl)phenyl)piperidine-2,6-dione] | 50 to 80 | ≤ 100
O=C1CCC(c2c(F)cc(N3CC(Nc4nnc(-c5ccc(Cl)cc5)o4)C3)cc2F)C(=O)N1 (stereo not shown) [Compound 93, 3-(4-(3-((5-(4-chlorophenyl)-1,3,4-oxadiazol-2-yl)amino)azetidin-1-yl)-2,6-difluorophenyl)piperidine-2,6-dione] | > 80 | 100 to 1000
COc1c(N2CC(Nc3nnc(C4CC5(CCC5)C4)o3)C2)ccc(C2CCC(=O)NC2=O)c1F (stereo not shown) [Compound 94, 3-(2-fluoro-3-methoxy-4-(3-((5-(spiro[3.3]heptan-2-yl)-1,3,4-oxadiazol-2-yl)amino)azetidin-1-yl)phenyl)piperidine-2,6-dione] | > 80 | 100 to 1000
N#Cc1ccc(-c2nnc(NC3CN(c4cc(F)c(C5CCC(=O)NC5=O)c(F)c4)C3)o2)cc1 (stereo not shown) [Compound 95, 4-(5-((1-(4-(2,6-dioxopiperidin-3-yl)-3,5-difluorophenyl)azetidin-3-yl)amino)-1,3,4-oxadiazol-2-yl)benzonitrile] | > 80 | ≤ 100
Cc1cccc(-c2nnc(NC3CN(c4cc(F)c(C5CCC(=O)NC5=O)c(F)c4)C3)o2)c1 (stereo not shown) [Compound 97, 3-(2,6-difluoro-4-(3-((5-(m-tolyl)-1,3,4-oxadiazol-2-yl)amino)azetidin-1-yl)phenyl)piperidine-2,6-dione] | > 80 | 100 to 1000
Cc1ccc(-c2nnc(NC3CN(c4cc(F)c(C5CCC(=O)NC5=O)c(F)c4)C3)o2)cc1 (stereo not shown) [Compound 99, 3-(2,6-difluoro-4-(3-((5-(p-tolyl)-1,3,4-oxadiazol-2-yl)amino)azetidin-1-yl)phenyl)piperidine-2,6-dione] | > 80 | 100 to 1000
CC1(Nc2nnc(C3CC4(CCC4)C3)o2)CN(c2cc(F)c(C3CCC(=O)NC3=O)c(F)c2)C1 (stereo not shown) [Compound 101, 3-(2,6-difluoro-4-(3-methyl-3-((5-(spiro[3.3]heptan-2-yl)-1,3,4-oxadiazol-2-yl)amino)azetidin-1-yl)phenyl)piperidine-2,6-dione] | 50 to 80 | ≤ 100
O=C1CCC(c2c(Cl)cc(N3CC(Nc4nnc(C5CC6(CCC6)C5)o4)C3)cc2Cl)C(=O)N1 (stereo not shown) [Compound 102, 3-(2,6-dichloro-4-(3-((5-(spiro[3.3]heptan-2-yl)-1,3,4-oxadiazol-2-yl)amino)azetidin-1-yl)phenyl)piperidine-2,6-dione] | > 80 | ≤ 100
O=C1CCC(c2c(F)cc(N3CC(Nc4nnc(-c5ccc(OC(F)(F)F)cc5)o4)C3)cc2F)C(=O)N1 (stereo not shown) [Compound 103, 3-(2,6-difluoro-4-(3-((5-(4-(trifluoromethoxy)phenyl)-1,3,4-oxadiazol-2-yl)amino)azetidin-1-yl)phenyl)piperidine-2,6-dione] | > 80 | ≤ 100
O=C1CCC(c2c(F)cc(N3CC(Nc4cc(C5CC6(CCC6)C5)ccn4)C3)cc2F)C(=O)N1 (stereo not shown) [Compound 106, 3-(2,6-difluoro-4-(3-((4-(spiro[3.3]heptan-2-yl)pyridin-2-yl)amino)azetidin-1-yl)phenyl)piperidine-2,6-dione] | 50 to 80 | ≤ 100
CN(C(=O)N1CC(OC(=S)NC2CN(c3cc(F)c(C4CCC(=O)NC4=O)c(F)c3)C2)C1)C1CC1 (stereo not shown) [Compound 108, O-(1-(cyclopropyl(methyl)carbamoyl)azetidin-3-yl) (1-(4-(2,6-dioxopiperidin-3-yl)-3,5-difluorophenyl)azetidin-3-yl)carbamothioate] | > 80 | ≤ 100
Cc1ccc(N(C)C(=O)N2CC(OC(=O)NC3CN(c4cc(F)c(C5CCC(=O)NC5=O)c(F)c4)C3)C2)cn1 (stereo not shown) [Compound 109, 1-(methyl (6-methylpyridin-3-yl)carbamoyl) azetidin-3-yl (1-(4-(2,6-dioxopiperidin-3-yl)-3,5-difluorophenyl)azetidin-3-yl) carbamate] | 10 to 50 | ≤ 100
Cc1ccc(N(C)C(=O)N2CC(OC(=O)NC3CN(c4cc(F)c(C5CCC(=O)NC5=O)c(F)c4)C3)C2)nc1 (stereo not shown) [Compound 110, 1-(methyl (5-methylpyridin-2-yl)carbamoyl) azetidin-3-yl (1-(4-(2,6-dioxopiperidin-3-yl)-3,5-difluorophenyl)azetidin-3-yl) carbamate] | 10 to 50 | ≤ 100
Cc1cc(Cl)ccc1N(C)C(=O)C12CC(OC(=O)NC3CN(c4cc(F)c(C5CCC(=O)NC5=O)c(F)c4)C3)(C1)C2 (stereo not shown) [Compound 112, 3-((4-chloro-2-methylphenyl)(methyl)carbamoyl)bicyclo[1.1.1]pentan-1-yl (1-(4-(2,6-dioxopiperidin-3-yl)-3,5-difluorophenyl)azetidin-3-yl)carbamate] | 10 to 50 | ≤ 100
Cc1c(Cl)cccc1N(C)C(=O)C12CC(OC(=O)NC3CN(c4cc(F)c(C5CCC(=O)NC5=O)c(F)c4)C3)(C1)C2 (stereo not shown) [Compound 115, 3-((3-chloro-2-methylphenyl)(methyl)carbamoyl)bicyclo[1.1.1]pentan-1-yl (1-(4-(2,6-dioxopiperidin-3-yl)-3,5-difluorophenyl)azetidin-3-yl)carbamate] | 10 to 50 | ≤ 100
Cc1ccc(N(C)C(=O)N2CC(OC(=O)NC3CN(c4cc(F)c(C5CCC(=O)NC5=O)c(F)c4)C3)C2)c(C)c1 (stereo not shown) [Compound 116, 1-((2,4-dimethylphenyl)(methyl)carbamoyl)azetidin-3-yl (1-(4-(2,6-dioxopiperidin-3-yl)-3,5-difluorophenyl)azetidin-3-yl)carbamate] | 10 to 50 | ≤ 100
Cc1ccc(N(C)C(=O)C23CC(OC(=O)NC4CN(c5cc(F)c(C6CCC(=O)NC6=O)c(F)c5)C4)(C2)C3)c(C)c1 (stereo not shown) [Compound 117, 3-((2,4-dimethylphenyl)(methyl)carbamoyl)bicyclo[1.1.1]pentan-1-yl (1-(4-(2,6-dioxopiperidin-3-yl)-3,5-difluorophenyl)azetidin-3-yl)carbamate] | 10 to 50 | ≤ 100
